Test results taken from ChEMBL document CHEMBL1275601, “Striking species difference in the contribution of concentrative nucleoside transporter 2 to nucleoside uptake between mouse and rat hepatocytes” (Antimicrob Agents Chemother, 2010).
Active and inactive are the calls of the source. The calls are words filed in the database; no cut-off is given here.

Legend:
Assay type in all cases: cell-based
[1] = molecular target: T1, Equilibrative nucleoside transporter 1 (Rattus norvegicus) (UniProt O54698); test: Transport through ENT1 in rat hepatocytes by oil filtration assay in presence of sodium ions in Kreb-henseleit buffer containing 100 uM NBMPR; settings: Hepatocyte
T1 sequence (whole entry): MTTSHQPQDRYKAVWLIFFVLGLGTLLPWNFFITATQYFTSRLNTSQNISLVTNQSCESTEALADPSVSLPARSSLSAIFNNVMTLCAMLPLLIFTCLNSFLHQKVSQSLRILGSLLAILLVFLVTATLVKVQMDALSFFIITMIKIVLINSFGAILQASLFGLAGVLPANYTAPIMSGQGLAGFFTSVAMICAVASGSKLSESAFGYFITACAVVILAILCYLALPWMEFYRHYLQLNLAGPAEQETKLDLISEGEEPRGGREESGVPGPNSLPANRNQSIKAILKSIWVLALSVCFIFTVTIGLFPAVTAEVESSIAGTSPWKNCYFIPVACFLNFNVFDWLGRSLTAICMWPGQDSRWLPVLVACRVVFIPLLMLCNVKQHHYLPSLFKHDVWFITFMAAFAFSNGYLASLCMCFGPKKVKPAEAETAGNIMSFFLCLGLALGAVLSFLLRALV

[2] = molecular target: T2, Equilibrative nucleoside transporter 2 (Rattus norvegicus) (UniProt O54699); test: Transport through ENT2 in rat hepatocytes by oil filtration assay; settings: Hepatocyte
T2 sequence (whole entry): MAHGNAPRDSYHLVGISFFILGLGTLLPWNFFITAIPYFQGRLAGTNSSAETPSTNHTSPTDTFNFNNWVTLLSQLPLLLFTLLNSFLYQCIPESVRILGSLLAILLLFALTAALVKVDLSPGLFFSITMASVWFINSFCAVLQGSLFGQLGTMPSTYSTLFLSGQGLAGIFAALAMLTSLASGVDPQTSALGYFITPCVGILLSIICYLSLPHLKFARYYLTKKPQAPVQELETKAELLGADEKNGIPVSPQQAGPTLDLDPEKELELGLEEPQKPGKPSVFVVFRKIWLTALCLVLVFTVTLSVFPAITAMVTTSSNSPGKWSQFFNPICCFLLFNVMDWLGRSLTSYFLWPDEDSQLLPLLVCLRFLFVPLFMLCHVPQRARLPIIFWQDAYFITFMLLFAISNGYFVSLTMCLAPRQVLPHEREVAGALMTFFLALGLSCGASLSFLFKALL

[3] = molecular target: T1, Equilibrative nucleoside transporter 1 (Rattus norvegicus); test: Transport through ENT1 in rat hepatocytes by oil filtration assay in presence of sodium ions in Kreb-henseleit buffer containing 100 uM NBMPR and 1 mM uridine; settings: Hepatocyte
[4] = molecular target: T3, Sodium/nucleoside cotransporter 2 (Rattus norvegicus) (UniProt Q62773); test: Transport through CNT2 in rat hepatocytes by oil filtration assay; settings: Hepatocyte
T3 sequence (whole entry): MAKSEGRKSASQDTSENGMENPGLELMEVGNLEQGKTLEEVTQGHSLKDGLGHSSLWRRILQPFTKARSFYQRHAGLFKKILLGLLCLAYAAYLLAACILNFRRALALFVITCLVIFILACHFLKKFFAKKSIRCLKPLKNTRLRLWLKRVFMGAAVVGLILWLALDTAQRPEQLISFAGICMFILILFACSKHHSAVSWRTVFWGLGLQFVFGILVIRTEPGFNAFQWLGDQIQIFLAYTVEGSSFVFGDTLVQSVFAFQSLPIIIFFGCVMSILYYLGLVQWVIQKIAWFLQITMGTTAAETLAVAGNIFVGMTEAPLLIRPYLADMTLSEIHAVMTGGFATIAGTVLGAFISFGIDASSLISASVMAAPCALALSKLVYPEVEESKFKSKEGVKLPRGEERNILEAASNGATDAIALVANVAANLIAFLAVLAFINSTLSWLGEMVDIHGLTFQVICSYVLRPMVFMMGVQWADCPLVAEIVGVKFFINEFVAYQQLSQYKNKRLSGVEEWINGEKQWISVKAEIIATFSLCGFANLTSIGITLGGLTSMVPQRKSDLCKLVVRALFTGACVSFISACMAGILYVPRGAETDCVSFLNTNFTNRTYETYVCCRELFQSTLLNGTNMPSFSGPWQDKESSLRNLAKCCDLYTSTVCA

[5] = test system: Hepatocyte; test: Transport through CNT3 in rat hepatocytes by oil filtration assay in presence of sodium ions in Kreb-henseleit buffer containing 100 uM NBMPR and 1 mM inosine
[6] = test system: Hepatocyte; test: Transport through CNT3 in rat hepatocytes by oil filtration assay in presence of sodium ions in Kreb-henseleit buffer
[7] = molecular target: T4, Sodium/nucleoside cotransporter 2 (Mus musculus) (UniProt O88627); test: Transport through CNT2 in mouse hepatocytes by oil filtration assay in presence of sodium ions in Kreb-henseleit buffer; settings: Hepatocyte
T4 sequence (whole entry): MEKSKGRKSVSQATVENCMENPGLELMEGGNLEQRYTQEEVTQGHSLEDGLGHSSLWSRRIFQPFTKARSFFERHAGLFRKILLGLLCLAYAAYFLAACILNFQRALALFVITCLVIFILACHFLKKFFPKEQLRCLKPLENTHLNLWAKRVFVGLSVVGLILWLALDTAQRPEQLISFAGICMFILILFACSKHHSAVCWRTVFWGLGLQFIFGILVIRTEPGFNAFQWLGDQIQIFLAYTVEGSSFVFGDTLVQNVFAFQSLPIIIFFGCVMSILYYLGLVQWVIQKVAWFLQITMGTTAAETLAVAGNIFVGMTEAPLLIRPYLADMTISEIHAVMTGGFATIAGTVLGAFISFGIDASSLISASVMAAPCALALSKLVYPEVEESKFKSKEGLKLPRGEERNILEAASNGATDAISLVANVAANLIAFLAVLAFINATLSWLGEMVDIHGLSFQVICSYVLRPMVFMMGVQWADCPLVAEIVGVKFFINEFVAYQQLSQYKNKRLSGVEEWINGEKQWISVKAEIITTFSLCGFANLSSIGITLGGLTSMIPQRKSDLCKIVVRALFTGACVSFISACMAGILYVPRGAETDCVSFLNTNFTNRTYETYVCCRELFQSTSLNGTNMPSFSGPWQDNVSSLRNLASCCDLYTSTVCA

[8] = molecular target: T3, Sodium/nucleoside cotransporter 2 (Rattus norvegicus); test: Transport through CNT2 in rat hepatocytes by oil filtration assay in presence of sodium ions in Kreb-henseleit buffer; settings: Hepatocyte

| Structure (SMILES) | Activity [1] | Activity [2] | Activity [3] | Activity [4] | Activity [5] | Activity [6] | Activity [7] | Activity [8] |
| --- | --- | --- | --- | --- | --- | --- | --- | --- |
| Nc1ncnc2c1ncn2[C@@H]1O[C@H](CO)[C@@H](O)[C@H]1O | Active | inactive | inactive | inactive | inactive | Active | inactive | Active |
| NC(=O)c1ncn([C@@H]2O[C@H](CO)[C@@H](O)[C@H]2O)n1 | Active | Active | inactive | Active | inactive | Active | inactive | Active |
